Assay results: patent publication US9533977B2, “Oxazolidinone derivative as CETP inhibitor, its preparation method, and pharmaceutical composition comprising the same” (DONG-A ST CO., LTD., priority 2013, dated 2017)
pIC50: −log10 of the molar value.

biological target: T1, CETP (Homo sapiens, UniProt P11597); experiment: Inhibitory activity against CETP in human plasma (Roar CETP activity kit, fluorescence); assay type: biochemical; conditions: plasma from healthy men diluted 1:10 in assay buffer, 37° C., 3 hrs, fluorescence 465/535 nm; read-out: IC50, Inhibition of CETP Activity in Human Plasma
T1 construct: from tissue; host or cells: human plasma from healthy men
T1 sequence (P11597 18-493): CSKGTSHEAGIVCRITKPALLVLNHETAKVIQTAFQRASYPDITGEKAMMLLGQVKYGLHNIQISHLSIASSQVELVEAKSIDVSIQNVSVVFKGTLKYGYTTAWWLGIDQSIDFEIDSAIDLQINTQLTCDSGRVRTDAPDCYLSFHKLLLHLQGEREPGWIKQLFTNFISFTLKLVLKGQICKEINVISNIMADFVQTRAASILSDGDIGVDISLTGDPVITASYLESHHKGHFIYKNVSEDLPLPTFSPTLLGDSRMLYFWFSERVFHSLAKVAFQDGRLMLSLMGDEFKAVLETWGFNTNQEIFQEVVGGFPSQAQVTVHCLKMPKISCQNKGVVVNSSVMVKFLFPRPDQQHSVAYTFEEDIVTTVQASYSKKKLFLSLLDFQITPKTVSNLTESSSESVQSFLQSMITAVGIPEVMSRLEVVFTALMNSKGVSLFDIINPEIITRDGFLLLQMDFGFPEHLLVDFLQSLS
Procedure: A CETP activity kit (#RB-CETP) was purchased from Roar […], Inc. A donor and an acceptor (each, 4 ul), a 10× assay buffer (177 ul), and each of dilutions of test compounds in dimethylsulfoxide (DMSO, Sigma-Aldrich) (0.01 nM˜10000 nM) were added to each well of black round-bottom 96-well plates (Corning #3792). Plasma samples from healthy men were diluted in the assay buffer (1:10=plasma:assay buffer), and added to each well. The plates were sealed with a sealing film (Sigma-Aldrich, #Z369659), and incubated in a 37° C. incubator microplate shaker (#SLST-3, Seolin Bio) for 3 hrs. After removal of the sealing film, fluorescence was read on Spectra Max Gemini EM (Molecular devices) with an excitation wavelength of 465 nm and an emission wavelength of 535 nm. Measurements were calculated according to the following formula. Calculated value=(Fluorescence Intensity with both compound and plasma−Fluorescence Intensity with compound but without plasma)/(Fluorescence Intensity with plasma but without compound−Fluorescence Intensity with neither compound nor plasma)
From the calculated value, a sigmoidal curve (y=start+(end-start)x^n/k^n+x^n) was drawn using Origin Software (OriginLab Corporation, ver. 8.0724) to obtain IC50 values.

Q: With CCN(C[C@H]1CC[C@H](CC(=O)O)CC1)c1ncc(-c2cncc(F)c2)nc1CN1C(=O)OC(c2cc(C(F)(F)F)cc(C(F)(F)F)c2)[C@@H]1C (some centres unmarked) [Example 120] as the molecule, how does the pIC50 read?
A: Its pIC50 is 7.61.

Q: CCN(c1ncc(N2CCC(F)(F)C2)cc1CN1C(=O)O[C@H](c2cc(C(F)(F)F)cc(C(F)(F)F)c2)[C@@H]1C)C1CCCCC1 [Example 91, (4S,5R)-5-[3,5-bis(trifluoromethyl)phenyl]-4-methyl-3-({[2-(ethyl)(cyclohexyl)amino]-5-(3,3-difluoro-pyrrolidin-1-yl)pyridin-3-yl}methyl)-oxazolidin-2-one] was tested. Which pIC50 did it give?
A: Its pIC50 is 7.57.

Q: CCN(C[C@H]1CC[C@H](CC(=O)O)CC1)c1ncc(-c2cccn2C)nc1CN1C(=O)OC(c2cc(C(F)(F)F)cc(C(F)(F)F)c2)[C@@H]1C (some centres unmarked) [Example 104] was tested. Which pIC50 did it give?
A: Its pIC50 is 8.42.

Q: How did the pIC50 turn out when CCOC(=O)c1c(C)noc1-c1cnc(N(CC)C2CCCCC2)c(CN2C(=O)O[C@H](c3cc(C(F)(F)F)cc(C(F)(F)F)c3)[C@@H]2C)c1 [Example 74] was run?
A: The pIC50 was 7.20.

Q: How did the pIC50 turn out when CCN(c1ncc(C#N)cc1CN1C(=O)O[C@H](c2cc(C(F)(F)F)cc(C(F)(F)F)c2)[C@@H]1C)C1CCCCC1 [Example 54] was run?
A: The pIC50 was 7.72.

Q: How did the pIC50 turn out when CCN(c1ncc(-c2c(N)noc2C)cc1CN1C(=O)O[C@H](c2cc(C(F)(F)F)cc(C(F)(F)F)c2)[C@@H]1C)C1CCCCC1 [Example 85, (4S,5R)-5-[3,5-bis(trifluoromethyl)phenyl]-4-methyl-3-({[2-(ethyl)(cyclohexyl)amino]-5-(3-amino-5-methyl-isoxazol-4-yl)pyridin-3-yl}methyl)-oxazolidin-2-one] was run?
A: Its pIC50 is 7.50.

Q: CCN(C[C@H]1CC[C@H](CC(=O)O)CC1)c1ncc(-c2sccc2C)nc1CN1C(=O)OC(c2cc(C(F)(F)F)cc(C(F)(F)F)c2)[C@@H]1C (some centres unmarked) [Example 111] was tested. Which pIC50 did it give?
A: The pIC50 was 8.51.

Q: CCN(c1ncc(-c2ccccc2)cc1CN1C(=O)O[C@H](c2cc(C(F)(F)F)cc(C(F)(F)F)c2)[C@@H]1C)C1CCOCC1 [Example 45, (4S,5R)-5-[3,5-bis(trifluoromethyl)phenyl]-4-methyl-3-({[2-(ethyl)(tetrahydro-2H-pyran-4-yl)amino]-5-phenylpyridin-3-yl}methyl)-oxazolidin-2-one] was tested. Which pIC50 did it give?
A: Its pIC50 is 7.57.

Q: CCN(c1ncc(-c2c[nH]nc2C(F)(F)F)cc1CN1C(=O)O[C@H](c2cc(C(F)(F)F)cc(C(F)(F)F)c2)[C@@H]1C)C1CCCCC1 [Example 72, (4S,5R)-5-[3,5-bis(trifluoromethyl)phenyl]-4-methyl-3-({[2-(ethyl)(cyclohexyl)amino]-5-(3-(trifluoromethyl)-1H-pyrazol-4-yl)pyridin-3-yl}methyl)-oxazolidin-2-one] was tested. Which pIC50 did it give?
A: Its pIC50 is 6.77.

Q: With CCN(C[C@H]1CC[C@H](CCO)CC1)c1ncc(-c2c(C)noc2C)nc1CN1C(=O)OC(c2cc(C(F)(F)F)cc(C(F)(F)F)c2)[C@@H]1C (some centres unmarked) [Example 130] as the molecule, how does the pIC50 read?
A: The pIC50 was 8.05.

Q: CCN(c1ncc(-c2cccc(F)c2)cc1CN1C(=O)O[C@H](c2cc(C(F)(F)F)cc(C(F)(F)F)c2)[C@@H]1C)C1CCOCC1 [Example 47, (4S,5R)-5-[3,5-bis(trifluoromethyl)phenyl]-4-methyl-3-({[2-(ethyl)(tetrahydro-2H-pyran-4-yl)amino]-5-(3-fluorophenyl)pyridin-3-yl}methyl)-oxazolidin-2-one] was tested. Which pIC50 did it give?
A: The pIC50 was 7.35.

Q: Cc1noc(C)c1-c1cnc(N(C)C2CCCCC2)c(CN2C(=O)O[C@H](c3cc(C(F)(F)F)cc(C(F)(F)F)c3)[C@@H]2C)c1 [Example 57, (4S,5R)-5-[3,5-bis(trifluoromethyl)phenyl]-4-methyl-3-({[2-(methyl)(cyclohexyl-4-yl)amino]-5-(3,5-dimethylisoxazol-4-yl)pyridin-3-yl}methyl)-oxazolidin-2-one] was tested. Which pIC50 did it give?
A: The pIC50 was 7.78.

Q: CCN(c1ncc(C(F)(F)F)cc1CN1C(=O)O[C@H](c2cc(C(F)(F)F)cc(C(F)(F)F)c2)[C@@H]1C)C1CCN(C(=O)OC)CC1 [Example 35, methyl 4-{[3-({(4S,5R)-5-[3,5-bis(trifluoromethyl)phenyl]-4-methyl-2-oxo-oxazolidin-3-yl}methyl)-5-(trifluoromethyl)pyridin-2-yl](ethyl)amino}piperidine-1-carboxylate] was tested. Which pIC50 did it give?
A: Its pIC50 is 7.70.

Q: How did the pIC50 turn out when CCN(c1ncc(-c2ccco2)cc1CN1C(=O)O[C@H](c2cc(C(F)(F)F)cc(C(F)(F)F)c2)[C@@H]1C)C1CCOCC1 [Example 49, (4S,5R)-5-[3,5-bis(trifluoromethyl)phenyl]-4-methyl-3-({[2-(ethyl)(tetrahydro-2H-pyran-4-yl)amino]-5-(furan-2-yl)pyridin-3-yl}methyl)-oxazolidin-2-one] was run?
A: The pIC50 was 7.63.

Q: With CCN(C[C@H]1CC[C@H](CC(=O)O)CC1)c1ncc(C2CC2)nc1CN1C(=O)OC(c2cc(C(F)(F)F)cc(C(F)(F)F)c2)[C@@H]1C (some centres unmarked) [Example 121] as the molecule, how does the pIC50 read?
A: Its pIC50 is 8.41.

Q: How did the pIC50 turn out when CCN(C[C@H]1CC[C@H](CC(=O)O)CC1)c1ncc(-c2cccnc2)nc1CN1C(=O)OC(c2cc(C(F)(F)F)cc(C(F)(F)F)c2)[C@@H]1C (some centres unmarked) [Example 119] was run?
A: Its pIC50 is 7.11.

Q: How did the pIC50 turn out when CCN(c1ncc(C(F)(F)F)cc1CN1C(=O)O[C@H](c2cc(C(F)(F)F)cc(C(F)(F)F)c2)[C@@H]1C)C1CCSCC1 [Example 25, (4S,5R)-5-[3,5-bis(trifluoromethyl)phenyl]-4-methyl-3-({[2-(ethyl)(tetrahydro-2H-thiopyran-4-yl)amino]-5-(trifluoromethyl)pyridin-3-yl}methyl)-oxazolidin-2-one] was run?
A: The pIC50 was 6.97.

Q: How did the pIC50 turn out when CCN(CC1CCCC1)c1ncc(-c2c(C)noc2C)nc1CN1C(=O)O[C@H](c2cc(C(F)(F)F)cc(C(F)(F)F)c2)[C@@H]1C [Example 101, (4S,5R)-5-[3,5-bis(trifluoromethyl)phenyl]-3-({[3-(cyclopentylmethyl)(ethyl)amino]-4-methyl 6-(3,5-dimethylisoxazol-4-yl)pyrazin-3-yl}methyl)-oxazolidin-2-one] was run?
A: The pIC50 was 8.46.

Q: How did the pIC50 turn out when CCN(c1ncc(F)cc1CN1C(=O)O[C@H](c2cc(C(F)(F)F)cc(C(F)(F)F)c2)[C@@H]1C)C1CCOCC1 [Example 16, (4S,5R)-5-[3,5-Bis(trifluoromethyl)phenyl]-4-methyl-3-({2-[ethyl(tetrahydro-2H-pyran-4-yl)amino]-5-fluoropyridin-3-yl}methyl)-oxazolidin-2-one] was run?
A: Its pIC50 is 7.12.

Q: CCC(=O)N1CCC(N(CC)c2ncc(C(F)(F)F)cc2CN2C(=O)O[C@H](c3cc(C(F)(F)F)cc(C(F)(F)F)c3)[C@@H]2C)CC1 [Example 34, (4S,5R)-5-[3,5-bis(trifluoromethyl)phenyl]-4-methyl-3-({[2-(ethyl)(1-propionylpiperidin-4-yl)amino]-5-(trifluoromethyl)pyridin-3-yl}methyl)-oxazolidin-2-one] was tested. Which pIC50 did it give?
A: Its pIC50 is 7.21.

Q: How did the pIC50 turn out when CCN(C[C@H]1CC[C@H](CC(=O)O)CC1)c1ncc(-c2c(C)noc2C)nc1CN1C(=O)OC(c2cc(C(F)(F)F)cc(C(F)(F)F)c2)[C@@H]1C (some centres unmarked) [Example 102] was run?
A: Its pIC50 is 9.19.

Q: CCN(c1ncc(-c2cc(C)cs2)cc1CN1C(=O)O[C@H](c2cc(C(F)(F)F)cc(C(F)(F)F)c2)[C@@H]1C)C1CCCCC1 [Example 63, (4S,5R)-5-[3,5-bis(trifluoromethyl)phenyl]-4-methyl-3-({[2-(ethyl)(cyclohexyl)amino]-5-(3-methyl-thiophen-5-yl)pyridin-3-yl}methyl)-oxazolidin-2-one] was tested. Which pIC50 did it give?
A: Its pIC50 is 7.72.

Q: With CCN(c1ncccc1CN1C(=O)O[C@H](c2cc(C(F)(F)F)cc(C(F)(F)F)c2)[C@@H]1C)C1CCOCC1 [Example 52, (4S,5R)-5-[3,5-bis(trifluoromethyl)phenyl]-4-methyl-3-({[2-(ethyl)(tetrahydro-2H-pyran-4-yl)amino]-pyridin-3-yl}methyl)-oxazolidin-2-one] as the molecule, how does the pIC50 read?
A: The pIC50 was 7.13.

Q: CCN(c1ncc(-c2cc(C(F)(F)F)nn2C)cc1CN1C(=O)O[C@H](c2cc(C(F)(F)F)cc(C(F)(F)F)c2)[C@@H]1C)C1CCCCC1 [Example 60, (4S,5R)-5-[3,5-bis(trifluoromethyl)phenyl]-4-methyl-3-({[2-(ethyl)(cyclohexyl-4-yl)amino]-5-(1-methyl-1H-3-(trifluoromethyl)-pyrazol-5-yl)pyridin-3-yl}methyl)-oxazolidin-2-one] was tested. Which pIC50 did it give?
A: Its pIC50 is 7.46.

Q: With CCN(c1ncc(N2CCC2)cc1CN1C(=O)O[C@H](c2cc(C(F)(F)F)cc(C(F)(F)F)c2)[C@@H]1C)C1CCOCC1 [Example 43, (4S,5R)-5-[3,5-bis(trifluoromethyl)phenyl]-4-methyl-3-({[2-(ethyl)(tetrahydro-2H-pyran-4-yl)amino]-5-(azetidin-1-yl)pyridin-3-yl}methyl)-oxazolidin-2-one] as the molecule, how does the pIC50 read?
A: The pIC50 was 8.10.

Q: CCN(c1ncc(-c2ccc(C)o2)cc1CN1C(=O)O[C@H](c2cc(C(F)(F)F)cc(C(F)(F)F)c2)[C@@H]1C)C1CCCCC1 [Example 75, (4S,5R)-5-[3,5-bis(trifluoromethyl)phenyl]-4-methyl-3-({[2-(ethyl)(cyclohexyl)amino]-5-(2-methyl-furan-5-yl)pyridin-3-yl}methyl)-oxazolidin-2-one] was tested. Which pIC50 did it give?
A: The pIC50 was 7.51.
